Test results reported in patent US20020077356A1, “Nonsteroidal antiinflammatory agents” (priority 2000, published 2002).
Read-outs that look alike come from different tables or passages of the source.

Columns and labels:
[1] = tested on: croton oil-induced inflammation in rats and mice; experiment: croton oil-induced inflammation (ear edema); assay type: in vivo; details: systemically two hours before croton oil, ear weight after 16-24 hours
Description: The antiinflammatory actions of the compounds of general formula I were tested in the animal experiment by testing in the croton oil-induced inflammation in rats and mice (J. Exp. Med. (1995), 182, 99-108). In this connection, croton oil in ethanolic solution was administered topically to the animals' ears. The test substances were also administered topically or systemically simultaneously with or two hours before the croton oil. After 16-24 hours, the ear weight was measured as a yardstick of the inflammatory edema, the peroxidase activity was measured as a yardstick of the invasions of granuloctyes, and the elastase activity was measured as a yardstick of the invasions of neutrophilic granuloctyes. In this test, the compounds of general formula I inhibit the three above-mentioned inflammation parameters both after topical administration and after systemic administration.
The antiinflammatory actions of the compounds of general formula I were tested in the animal experiment in the croton oil-induced inflammation in rats and mice (J. Exp. Med. (1995), 182, 99-108). In this respect, croton oil in an ethanolic solution was administered topically to the ears in the animals. The test substances were systemically administered two hours before the croton oil. After 16-24 hours, the ear weight was measured as a yardstick of the inflammatory edema.

[2] = tested on: secretion of cytokine IL-8 in the human monocyte cell line THP-1; experiment: inhibition of LPS-triggered IL-8 secretion in THP-1 cells; assay type: cell-based; design: Inhibition of IL-8 Secretion Effectiveness: concentration or dose not given beside the values; details: ELISA of supernatant
Description: The concentration of the cytokines was determined in the supernatant with use of commercially available ELISA kits.
The potency of the antiinflammatory action is determined in a cell test by the inhibition of the secretion of cytokine IL-8. […] The concentration of the cytokines was determined in the supernatant by means of commercially available ELISA kits. In this connection, the compounds of formula 1 show a high to very high potency and action in inhibition (see Table 10).

[3] = target: T1, glucocorticoid receptor (GR) (Homo sapiens, UniProt P04150); experiment: glucocorticoid receptor (GR) binding test; details: cytosol preparations of Sf9 cells infected with recombinant baculoviruses coding for the GR; 10 nM [3H]-dexamethasone
T1 construct: made in house; host or cells: Sf9 insect cells infected with recombinant baculovirus; cytosol preparation
T1 sequence (P04150 1-777): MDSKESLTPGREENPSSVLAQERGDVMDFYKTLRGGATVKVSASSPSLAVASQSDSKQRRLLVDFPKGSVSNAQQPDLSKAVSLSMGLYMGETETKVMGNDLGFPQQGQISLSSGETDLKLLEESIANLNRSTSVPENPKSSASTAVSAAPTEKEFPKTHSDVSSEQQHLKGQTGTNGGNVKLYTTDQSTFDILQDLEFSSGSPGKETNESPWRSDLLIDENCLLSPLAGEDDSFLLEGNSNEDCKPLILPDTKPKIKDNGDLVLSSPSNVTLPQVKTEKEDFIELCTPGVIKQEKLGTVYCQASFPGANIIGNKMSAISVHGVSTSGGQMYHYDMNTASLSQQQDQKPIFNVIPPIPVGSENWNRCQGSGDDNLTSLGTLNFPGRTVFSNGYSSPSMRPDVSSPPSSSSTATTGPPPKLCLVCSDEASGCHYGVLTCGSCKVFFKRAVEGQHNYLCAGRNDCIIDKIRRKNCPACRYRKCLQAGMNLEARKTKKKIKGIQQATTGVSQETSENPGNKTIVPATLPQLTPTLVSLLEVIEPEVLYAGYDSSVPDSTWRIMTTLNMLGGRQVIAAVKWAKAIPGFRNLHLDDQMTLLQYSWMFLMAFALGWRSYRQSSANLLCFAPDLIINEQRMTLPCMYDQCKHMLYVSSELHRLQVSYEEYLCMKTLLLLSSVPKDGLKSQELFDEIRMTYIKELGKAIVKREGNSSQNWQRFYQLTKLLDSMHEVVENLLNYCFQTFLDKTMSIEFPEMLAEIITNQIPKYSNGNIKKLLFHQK
From the text: The binding of substances to the glucocorticoid receptor (GR) is examined with the aid of a recombinantly produced receptor. Cytosol preparations of Sf9 cells, which had been infected with recombinant baculoviruses, which code for the GR, are used for the binding studies.

[4] = tested on: tyrosinamino transferase (TAT); details: in vivo
Description: (§1) The activity of this enzyme can be determined photometrically from liver homogenates and represents a good yardstick of the undesirable metabolic actions of the glucocorticoids. To measure the TAT induction, the animals are sacrificed 8 hours after the test substances are administered, the livers are removed, and the TAT activity in the homogenate is measured.
(§2) As a parameter for the side effects of the steroid-induced catabolic metabolism, the activity of the enzyme tyrosinamino transferase (TAT) was determined from liver homogenates by photometry. The activity represents a good yardstick of the undesirable metabolic actions of the glucocorticoids. To measure the TAT induction, the animals are sacrificed 8 hours after the test substances are administered, the livers are removed, and the TAT activity in the homogenate is measured.

[5] = tested on: tyrosinamino transferase (TAT); experiment: induction of tyrosinamino transferase (TAT) activity in liver homogenates; details: liver homogenate 8 hours after administration, n-fold increase compared to untreated animals
Description: as §1, §2

| SMILES | IC50 [2] | IC50 [3] | Induction factor for TAT with 3 mg/kg [4] | Induction factor for TAT with 30 mg/kg [4] | IC50 ([2]; Homo sapiens) | Induction factor for TAT with 3 mg/kg ([5]; 3 mg/kg) | Induction factor for TAT with 30 mg/kg ([5]; 30 mg/kg) | Edema inhibition with 3 mg/kg [1] | Edema inhibition with 30 mg/kg [1] | Inhibition of IL-8 Secretion Effectiveness [2] |
| --- | --- | --- | --- | --- | --- | --- | --- | --- | --- | --- |
| Cc1noc(=O)c2ccc(NC(=O)C(O)(CC(C)(C)c3ccc(F)cc3Cl)C(F)(F)F)cc12 (single isomer, unassigned; (+)) [Example 3, compound 9, (+)-6-[4-(2-chloro-4-fluoro-phenyl)-2-hydroxy-4-methyl-2-trifluoromethylvaleroyl]-amino-4-methyl-2,3-benzoxazin-1-one] | 65 nM | < 0.3 nM | – | – | – | – | – | 50% | 92% | 51% |
| Cc1noc(=O)c2ccc(NC(=O)C(O)(CC3(c4cc(F)ccc4Cl)CCC3)C(F)(F)F)cc12 (single isomer, unassigned; (+)) [Example 16, compound 16, (+)-6-[3-{1-(2-chloro-5-fluorophenyl)-cyclobutyl}-2-hydroxy-2-trifluoromethyl-propionyl]-amino-4-methyl-2,3-benzoxazin-1-one] | 10 nM | 0.62 nM | 1.3 | 2.0 | – | – | – | 54% | 78% | 80% |
| Cc1noc(=O)c2ccc(NC(=O)C(O)(CC3(c4cc(F)ccc4C(F)(F)F)CCC3)C(F)(F)F)cc12 (single isomer, unassigned; (+)) [Example 16, compound 33, (+)-6-[3-{1-(5-fluoro-2-trifluoromethyl-phenyl)-cyclobutyl}-2-hydroxy-2-trifluoromethylpropionyl]-amino-4-methyl-2,3-benzoxazin-1-one] | 30 nM | 1.1 nM | – | – | – | – | – | 77% | 86% | 45% |
| C[C@]12C=CC(=O)C=C1CC[C@@H]1[C@@H]2[C@@H](O)C[C@@]2(C)[C@H]1CC[C@]2(O)C(=O)CO [Prednisolone, reference compound] | – | – | – | – | 24 nM | 2.6 | 8.0 | 35% | 84% | 95% |

The next lines start with results.

| IC50 [2] | IC50 [3] | Induction factor for TAT with 3 mg/kg [4] | Induction factor for TAT with 30 mg/kg [4] | IC50 ([2]; Homo sapiens) | Induction factor for TAT with 3 mg/kg ([5]; 3 mg/kg) | Induction factor for TAT with 30 mg/kg ([5]; 30 mg/kg) | SMILES | Edema inhibition with 3 mg/kg [1] | Edema inhibition with 30 mg/kg [1] | Inhibition of IL-8 Secretion Effectiveness [2] |
| --- | --- | --- | --- | --- | --- | --- | --- | --- | --- | --- |
| 9.6 nM | < 0.3 nM | – | – | – | – | – | Cc1noc(=O)c2ccc(NC(=O)C(O)(CC3(c4cc(F)ccc4Cl)CC3)C(F)(F)F)cc12 (single isomer, unassigned; (+)) [Example 16, compound 13, (+)-6-[3-{1-(2-chloro-5-fluorophenyl)-cyclopropyl}-2-hydroxy-2-trifluoromethyl-propionyl]-amino-4-methyl-2,3-benzoxazin-1-one] | 47% | 106% | 58% |
| 4.3 nM | 16 nM | 1.4 | 3.7 | – | – | – | Cc1noc(=O)c2ccc(NC(=O)C(O)(CC3(c4ccccc4C(F)(F)F)CCC3)C(F)(F)F)cc12 (single isomer, unassigned; (+)) [Example 16, compound 26, (+)-6-[3-{1-(2-trifluoromethyl-phenyl)-cyclobutyl}-2-hydroxy-2-trifluoromethylpropionyl]-amino-4-methyl-2,3-benzoxazin-1-one] | 11% | 81% | 77% |
